Reference: patent publication US11634425B2, “Pharmaceutical compounds” (priority 2019, dated 2023)
Like-named read-outs stand apart in the source and are kept apart here.

Columns and labels:
RSV A2 = experiment: RSV plaque reduction assay; assay type: cell-based, respiratory syncytial virus (RSV); conditions: mean of at least two experiments
Summary of the method: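 EC50 is the 50% reduction in immunostained plaque count versus virus-control wells, interpolated from variable-slope 4-parameter fits and averaged over at least two runs. Hep-G2 cells were infected with 100 PFU/well RSV A2 premixed with compound, with the inoculum removed after 2 h. Incubation continued at 37 °C for 2 days under a CMC overlay with compound.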

Hep-G2 cells = experiment: Cell cytotoxicity (CC50); assay type: cell-based; conditions: mean of at least two experiments
Summary of the method: (§1)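 Values are means of ≥2 independent runs, rounded to whole units, from 4-parameter variable-slope curve fits. Toxicity measured in Hep-G2 cells run alongside RSV plaque-reduction assays.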

in vitro [1] = assay type: in vitro ADME; conditions: 1 μM compound, 0.5 mg/mL protein; for half-life at 1 μM: microsomes, pH 7.4, read-out: Liver Microsomal Stability t1/2
Summary of the method: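 Pooled liver microsomes (0.5 mg/mL protein) in 0.1 M phosphate pH 7.4 with 1 μM compound and 1 mM NADPH at 37° C., sampled at 0–45 min; minus-NADPH control at 45 min. Acetonitrile quench, LC-MS/MS; t1/2 and CLint from ln peak-area ratio vs time slope.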

Cell cytotoxicity (CC50) = assay type: cell-based; conditions: human; mean of at least two experiments
Summary of the method: as §1

in vitro [2] = assay type: in vitro ADME; conditions: hepatocytes, 3 μM compound, read-out: Liver Hepatocyte Stability t1/2
Procedure: Compounds were subjected to the following assays to investigate liver microsomal stability and hepatocyte stability.
Hepatocyte Incubation: Experimental Procedure
Cryopreserved pooled hepatocytes were purchased from a reputable commercial supplier and stored in liquid nitrogen prior to use. Williams E media supplemented with 2 mM L-glutamine and 25 mM HEPES and test compound (final substrate concentration 3 μM; final DMSO concentration 0.25%) are pre-incubated at 37° C. prior to the addition of a suspension of cryopreserved hepatocytes (final cell density 0.5×10^6 viable cells/mL in Williams E media supplemented with 2 mM L-glutamine and 25 mM HEPES) to initiate the reaction. The final incubation volume is 500 μL. Two control compounds were included with each species, alongside appropriate vehicle control. The reactions are stopped by transferring 50 μL of incubate to 100 μL acetonitrile containing internal standard at the appropriate time points. Samples were removed at 6 time points (0, 5, 15, 30, 45 and 60 min) over the course of a 60 min experiment. The termination plates are centrifuged at 2500 rpm at 4° C. for 30 min to precipitate the protein. Following protein precipitation, the sample supernatants were combined in cassettes of up to 4 compounds and analysed using generic LC-MS/MS conditions. From a plot of ln peak area ratio (compound peak area/internal standard peak area) against time, the gradient of the line is determined. Subsequently, half-life (t1/2) and intrinsic clearance (CLint) were calculated.

in vivo = assay type: in vivo, rat (Sprague Dawley); conditions: male SD rat; for Vd / clearance / Cmax / half-life / AUC(0-t): Sprague Dawley, in vivo; for Cmax / C 8 h: IV 1 mg/kg / PO 10 mg/kg study; for AUC(0-t): read-out: PO AUClast
Procedure: The pharmacokinetics of compounds were studied in vivo in rats at doses of 1 mg/kg (IV) and 10 mg/kg (PO).
Male rats [Sprague Dawley (SD)] surgically prepared with a jugular vein cannula were treated with experimental compounds via intravenous administration (IV; n=3; 1 mg/kg) or oral administration (PO; n=3; 10 mg/kg). Compounds were formulated as a solution in 40:60 dimethylacetamide:saline (IV administration) and a solution of 10% DMSO, 20% cremaphor in water (70%) (PO administration). […] Serial blood samples were collected via the cannula at 0.02, 0.08, 0.25, 0.5, 1, 2, 4, 6, 8 and 24 h post IV dosing of compound, and at 0.08, 0.25, 0.5, 1, 2, 4, 6, 8 and 24 h post oral dosing of compound, and plasma was prepared by centrifugation and stored immediately at −80° C. Samples were subsequently thawed, prepared for analysis by protein precipitation with acetonitrile, and analysed by tandem LCMS using electrospray ionisation using a matrix-matched calibration curve. PK parameters were calculated from the resulting data.

[3] = human respiratory syncytial virus, HepG2, Hep-G2 cells
[4] = IV 1 mg/kg, read-out: IV t1/2 (converted)
[5] = PO 10 mg/kg, read-out: PO t1/2 (converted)

Molecule | EC50 (RSV A2; Hep-G2 cells) [nM] | CC50 (Hep-G2 cells) [µM] | half-life at 1 μM (in vitro [1]; dog) [min] | half-life at 1 μM (in vitro [1]; human) [min] | half-life at 1 μM (in vitro [1]; rat) [min] | EC50 (RSV A2; [3]) [nM] | CC50 (Cell cytotoxicity (CC50)) [µM] | half-life at 3 μM (in vitro [2]; dog) [min] | half-life at 3 μM (in vitro [2]; human) [min] | half-life at 3 μM (in vitro [2]; rat) [min] | also measured
2-[2-Methyl-6-(propan-2-ylamino)pyridin-3-yl]-N-[(3S)-2-oxo-5-phenyl-1,3-dihydro-1,4-benzodiazepin-3-yl]pyrazolo[1,5-a]pyrimidine-3-carboxamide [Example 60] | 41 | > 25 |  |  |  |  |  |  |  |  | 
COc1ccc2nc(-c3ccncc3F)c(C(=O)N[C@H]3N=C(c4ccccc4)c4cccc(F)c4NC3=O)n2n1 [Example 119, N-[(3S)-9-fluoro-2-oxo-5-phenyl-1,3-dihydro-1,4-benzodiazepin-3-yl]-2-(3-fluoropyridin-4-yl)-6-methoxyimidazo[1,2-b]pyridazine-3-carboxamide] |  |  | 444 | 161 | 51.8 | 28 | > 25 | 295 | > 186 | 118 | 
O=C(N[C@H]1N=C(c2ccccc2)c2cccc(F)c2NC1=O)c1c(-c2ccc3[nH]ncc3c2)nc2cccnn12 [Example 126, N-[(3S)-9-fluoro-2-oxo-5-phenyl-1,3-dihydro-1,4-benzodiazepin-3-yl]-2-(1H-indazol-5-yl)imidazo[1,2-b]pyridazine-3-carboxamide] | 56 | > 25 |  |  |  |  |  |  |  |  | Liver Microsomal Stability t1/2 (in vitro [1]; dog): 33.8 min; Liver Microsomal Stability t1/2 (in vitro [1]; human): 312 min; Liver Microsomal Stability t1/2 (in vitro [1]; rat): 413 min
Cc1ccn2nc(-c3ccccc3F)c(C(=O)N[C@H]3N=C(c4ccccc4)c4cccc(F)c4NC3=O)c2n1 [Example 23, N-[(3S)-9-Fluoro-2-oxo-5-phenyl-1,3-dihydro-1,4-benzodiazepin-3-yl]-2-(2-fluorophenyl)-5-methylpyrazolo[1,5-a]pyrimidine-3-carboxamide] |  |  | 902 | 399 | 33.3 | 21 | > 25 | 214 | 519 | 70.9 | 
Cc1ccc2nc(-c3ccccc3F)c(C(=O)N[C@H]3N=C(c4ccccc4)c4cccc(F)c4NC3=O)n2n1 [Example 19, N-[(3S)-9-fluoro-2-oxo-5-phenyl-1,3-dihydro-1,4-benzodiazepin-3-yl]-2-(2-fluorophenyl)-6-methylimidazo[1,2-b]pyridazine-3-carboxamide] |  |  | > 140 | > 140 | 28.6 | 31 | > 25 | > 186 | 121 | 95.8 | 
N-[(3S)-9-Fluoro-2-oxo-5-phenyl-l,3-dihydro-1,4-benzodiazepin-3-yl]-2-phenylpyrazolo[1,5-a]pyrimidine-3-carboxamide [Example 17] | 90 | > 25 |  |  |  |  |  |  |  |  | 
CN1CCc2ccc(-c3nn4cccnc4c3C(=O)N[C@H]3N=C(c4ccccc4)c4ccccc4NC3=O)cc21 [Example 11, 2-(1-Methyl-2,3-dihydroindol-6-yl)-N-[(3S)-2-oxo-5-phenyl-1,3-dihydro-1,4-benzodiazepin-3-yl]pyrazolo[1,5-a]pyrimidine-3-carboxamide] | 89 | > 25 |  |  |  |  |  |  |  |  | 
O=C(N[C@H]1N=C(c2ccccc2)c2cccc(F)c2NC1=O)c1c(-c2ccccc2F)nn2cccnc12 [Example 3, N-[(3S)-9-fluoro-2-oxo-5-phenyl-1,3-dihydro-1,4-benzodiazepin-3-yl]-2-(2-fluorophenyl)pyrazolo[1,5-a]pyrimidine-3-carboxamide] |  |  | > 140 | 330 | > 140 | 90 | > 25 | > 186 | 257 | 81.7 | 
CCc1ccc(-c2nn3cccnc3c2C(=O)N[C@H]2N=C(c3ccccc3)c3cccc(F)c3NC2=O)c(C)n1 [Example 57, 2-(6-Ethyl-2-methylpyridin-3-yl)-N-[(3S)-9-fluoro-2-oxo-5-phenyl-2,3-dihydro-1H-1,4-benzodiazepin-3-yl]pyrazolo[1,5-a]pyrimidine-3-carboxamide] |  |  | 82.6 | 101 | 42.9 | 56 | > 25 | 2600 | > 186 | 47.1 | Vd (in vivo; IV 1 mg/kg): 0.6 L/kg; clearance (in vivo; IV 1 mg/kg): 19.2 mL/min/kg; Cmax (in vivo): 912 ng/mL; half-life (in vivo; [4]): 84 min; AUC(0-t) (in vivo; PO 10 mg/kg): 3660 ng·h/mL; half-life (in vivo; [5]): 156 min; C 8 h (in vivo): 142 ng/mL; F (in vivo; IV 1 mg/kg, PO 10 mg/kg): 48%
O=C(N[C@H]1N=C(c2ccccc2)c2cccc(F)c2NC1=O)c1c(-c2cncc(Cl)c2)nn2cccnc12 [Example 28, 2-(5-Chloropyridin-3-yl)-N-[(3S)-9-fluoro-2-oxo-5-phenyl-1,3-dihydro-1,4-benzodiazepin-3-yl]pyrazolo[1,5-a]pyrimidine-3-carboxamide] |  |  | 257 | 852 | 2680 | 41 | > 25 | 240 | 194 | > 186 | Vd (in vivo; IV 1 mg/kg): 1.8 L/kg; clearance (in vivo; IV 1 mg/kg): 7.8 mL/min/kg; Cmax (in vivo): 785 ng/mL; half-life (in vivo; [4]): 186 min; AUC(0-t) (in vivo; PO 10 mg/kg): 11100 ng·h/mL; half-life (in vivo; [5]): 324 min; C 8 h (in vivo): 629 ng/mL; F (in vivo; IV 1 mg/kg, PO 10 mg/kg): 54%
Cc1ccc2nc(-c3ccccc3)c(C(=O)N[C@H]3N=C(c4ccccc4)c4cccc(F)c4NC3=O)n2n1 [Example 93, N-[(3S)-9-Fluoro-2-oxo-5-phenyl-1,3-dihydro-1,4-benzodiazepin-3-yl]-6-methyl-2-phenylimidazo[1,2-b]pyridazine-3-carboxamide] |  |  | 1420 | 2090 | 41.1 | 33 | > 25 | 445 | 294 | 71.5 | 
O=C(N[C@H]1N=C(c2ccccc2)c2cccc(F)c2NC1=O)c1c(-c2ccccc2F)nc2cccnn12 [Example 18, N-[(3S)-9-fluoro-2-oxo-5-phenyl-1,3-dihydro-1,4-benzodiazepin-3-yl]-2-(2-fluorophenyl)imidazo[1,2-b]pyridazine-3-carboxamide] |  |  | 414 | 741 | 50.3 | 28 | > 25 | 127 | 694 | 66.4 | 
Cc1ccc2nc(-c3ccc(N4CCOCC4)nc3)c(C(=O)N[C@H]3N=C(c4ccccc4)c4cccc(F)c4NC3=O)n2n1 [Example 105, N-[(3S)-9-fluoro-2-oxo-5-phenyl-1,3-dihydro-1,4-benzodiazepin-3-yl]-6-methyl-2-(6-morpholin-4-ylpyridin-3-yl)imidazo[1,2-b]pyridazine-3-carboxamide] | 38 | > 25 |  |  |  |  |  |  |  |  | 
